PubChem BioAssay AID624462 (National Center for Advancing Translational Sciences (NCATS), 2012)
In brackets after ≈: the same amount, converted by molar mass.

Test system: PBS pH 7.4 kinetic solubility, LC-UV/MS
Test: qHTS for Inhibitors of mutant isocitrate dehydrogenase 1 (IDH1): Aqueous Kinetic Solubility
Conditions: stronger effect = higher value
Text: Malignant glioblastomas (WHO grade IV), including primary and secondary glioblastomas, are among the most lethal with a median survival of one year, and unfortunately they are also the most prevalent type of brain tumors. By and large the standard of care of gliomas remains the use of the oral alkylating agent temozolomide and radiotherapy following surgical tumor resection. There is an urgent unmet medical need for novel therapeutics for gliomas. IDH mutations occur in up to 70% of grade II-IV secondary glioblastomas, and IDH1 R132H is the most prevalent mutation. […] Wild-type (WT) IDH1 catalyzes the conversion of isocitrate to a-ketoglutarate with the concomitant reduction of NADP+ to NADPH. In contrast, IDH1 R132H catalyzes the conversion of a-ketoglutarate to 2-hydroxyglutarate (2-HG) with the concomitant oxidation of NADPH to NADP+ [5]. Recently, a second significant advancement for the field was the finding that IDH is an oncogene, and that its metabolic product 2-HG may contribute to the pathogenesis of IDH-mutated cancers. […] Although this link to cancer is tantalizing, the direct evidence of how 2-HG drives pathogenesis of gliomas and AML remains a subject of further research. This bioassays provides profiling data on aqueous kinetic solubility (PBS @ pH7.4) of the IDH probe. […]
1. […] Concentration of the supernatant was determined by LC-UV or LC-MS/MS

solubility: 54.3 µM (≈ 26.3 µg/mL)
SMILES: Cc1ccccc1C(C(=O)NC1CCCC1)N(C(=O)Cn1cnc2ccccc21)c1cccc(F)c1 (stereo unspecified)
